The values that follow come from publication PMC7730238, “Temporin-Like Peptides Show Antimicrobial and Anti-Biofilm Activities against Streptococcus mutans with Reduced Hemolysis” (Molecules, 2020).

In data set [1] the test system is Human red blood cells (hRBCs). It is filed as cell-based. The procedure:
The hemolytic toxicity of the peptides was determined as described. Human red blood cells (hRBCs) were washed with phosphate-buffered saline (PBS, pH 7.2) and centrifuged at 1000× g for 10 min at 4 °C until the supernatant was clear. 4% hRBCs and an equal volume of the peptides with different concentrations were incubated at 37 °C for 1 h. After incubation, the supernatant was collected by centrifugation, and 150 μL was transferred to a new 96-well plate (Corning, New York, NY, USA). The absorbance at 450 nm was measured. The 0.1% Triton X-100 was used as the positive control, and PBS was used as the negative control. The minimum hemolysis concentration (MHC) was defined as the lowest concentration of peptide that causes 10% hemolysis, and HL50 was the lowest concentration that causes 50% hemolysis. CSI was defined as the ratio of HL50 to MIC [31].

The test system of data set [2] is MRSA-1, methicillin-resistant S. aureus (clinically isolated, No.1). It is filed as cell-based, Staphylococcus aureus. To be noted: for MIC: -1, methicillin-resistant (clinically isolated, No.1); for MBC: -1, methicillin-resistant (clinically isolated, No.1, 24 h). The source says: (§1) The strains were used in the experiments, including Gram-positive bacteria Staphylococcus aureus (ATCC 25923), Bacillus subtilis (ATCC 6633), Streptococcus mutans (ATCC 25175), Methicillin-resistant Staphylococcus aureus (ATCC 43300), Methicillin-resistant Staphylococcus aureus 1–3 (clinically isolated, number 1–3), Gram-negative bacteria Escherichia coli (ATCC 25922), E. coli (D 31), Pseudomonas aeruginosa (ATCC 15442), P. aeruginosa PAO1 (wild type), and the fungus Candida albicans (ATCC 10231). S. mutans was cultured in Brain Heart Infusion Broth (BHI, Beijing Land Bridge, China) under anaerobic condition; C. albicans was grown in Sabouraud Dextrose Broth (SDB, HuanKai Microbial, Guangzhou, China); and the other bacterial strains were grown in Tryptic Soy Broth (TSB, HuanKai Microbial, Guangzhou, China). All bacteria and fungi were cultivated to the logarithmic phase at 37 °C before experiments were performed.
(§2) The antimicrobial activities of the peptides were measured by the two-fold dilution method. Each strain was inoculated in the medium and cultivated to the logarithmic phase. A series of diluted peptides (concentrations of 3.1–100 μM, 50 μL) were prepared in a 96-well plate (Corning, New York, NY, USA), and the same volume of the bacterial suspension (the final concentration of 1 × 10^6 CFU/mL) was added. After incubation at 37 °C for 18–24 h, the absorbance at 600 nm was measured by using a microplate reader (Multiskan Spectrum, BioTek, Winuski, VT, USA). […] All tests were performed in triplicate independent experiments.
(§3) From the MIC measuring plates, 50 μL of bacteria suspension in the presence of peptides when the concentrations were equal and up to MICs was spread on the BHI agar medium, and incubated at 37 °C for 24 h. The peptide concentration with no bacterial growth was defined as MBC [33].

Data set [3] relates to MRSA-2, methicillin-resistant S. aureus (clinically isolated, No.2). It is filed as cell-based, Staphylococcus aureus. To be noted: for MIC: -2, methicillin-resistant (clinically isolated, No.2); for MBC: -2, methicillin-resistant (clinically isolated, No.2, 24 h).
Description: as §1, §2, §3

Data set [4] concerns MRSA-3, methicillin-resistant S. aureus (clinically isolated, No.3). The format is cell-based, Staphylococcus aureus. To be noted: for MIC: -3, methicillin-resistant (clinically isolated, No.3); for MBC: -3, methicillin-resistant (clinically isolated, No.3, 24 h).
Description: as §1, §2, §3

Data set [5] relates to methicillin-resistant S. aureus (ATCC 43300). It is filed as cell-based, Staphylococcus aureus. As to conditions: for MIC: ATCC 43300; for MBC: ATCC 43300, 24 h.
Description: as §1, §2, §3

The subject of data set [6] is Candida albicans (ATCC 10231). It is filed as cell-based. As to conditions: for MIC: ATCC 10231; for MBC: ATCC 10231, 24 h.
Description: as §1, §2, §3

Data set [7] has as its system Escherichia coli (ATCC 25922). It is filed as cell-based. To be noted: for MIC: ATCC 25922; for MBC: ATCC 25922, 24 h.
Description: as §1, §2, §3

For data set [8], the system named is Pseudomonas aeruginosa (ATCC 15442). The format is cell-based. To be noted: for MIC: ATCC 15442; for MBC: ATCC 15442, 24 h.
Description: as §1, §2, §3

Data set [9] deals with Staphylococcus aureus (ATCC 25923). It is filed as cell-based. As to conditions: for MIC: ATCC 25923; for MBC: ATCC 25923, 24 h.
Description: as §1, §2, §3

Data set [10] relates to Streptococcus mutans (ATCC 25175). It is filed as cell-based. As to conditions: for MIC: ATCC 25175; for MBC: ATCC 25175, 24 h.
Description: as §1, §2, §3

Data set [11] concerns P. aeruginosa PAO1 (wild type). The format is cell-based, Pseudomonas aeruginosa. To be noted: for MIC: PAO1; for MBC: PAO1, 24 h.
Description: as §1, §2, §3

Data set [12] has as its system Bacillus subtilis (ATCC 6633). The format is cell-based.
Description: as §1, §2, §3

No end group written: not given here.

One may read the MIC as the lowest concentration found to suppress growth. Turning to FLQRIIGAWGRLF [GHaR9W], in data set [1], the “HL50 relative to that of GHaR” value is given as 1–5 times higher. Further, the minimal inhibitory concentration (MIC) in data set [2] turned out to be 6.2 µM; in data set [3], 6.2 µM; in data set [4], 6.2 µM; in [5], 6.2 µM; in data set [6], 25 µM; in [7] it was 12.5 µM. Also, the MIC in data set [8] was over 50 µM; in data set [9], 3.1 µM; in data set [10], 6.2 µM; in data set [11], 25 µM. In addition, the MBC turned out to be 12.5 µM in data set [2]; 12.5 µM in [3]; 12.5 µM in data set [4]; 12.5 µM in data set [5]; 25 µM in data set [6]; 12.5 µM in [7]. Moreover, the MBC in [8] is over 50 µM; in [9] it was 6.2 µM; in data set [10] it was 6.2 µM; in [11], 50 µM.

Regarding FLQRIIGARGRLF [GHaR9R], the minimal inhibitory concentration (MIC) in data set [2], in data set [3], in data set [4], in data set [5], in [12] (ATCC 6633) and in data set [6] was over 50 µM throughout. In addition, the minimal inhibitory concentration (MIC) in data set [7] was over 50 µM; in [8], over 50 µM; in [9] it was 6.2 µM; in data set [10], over 50 µM; in data set [11], over 50 µM. Also, the MBC in [2] is over 50 µM; in data set [3], over 50 µM; in data set [4], over 50 µM; in [5], over 50 µM; in [12] (ATCC 6633, 24 h), over 50 µM; in [6], over 50 µM. Moreover, the MBC in [7] is over 50 µM; in data set [8] it was over 50 µM; in [9], 12.5 µM; in [10], over 50 µM; in data set [11] it was over 50 µM.

Consider FLQRIIGALGRLF [GHaR], for which the MIC in data set [2] was 3.1 µM; in data set [3], 6.2 µM; in data set [4], 3.1 µM; in [5], 3.1 µM; in data set [6] it was 12.5 µM; in data set [7], 6.2 µM. Further, the MIC in [8] came out at 6.2 µM; in data set [9], 1.6 µM; in data set [10] it was 3.1 µM; in [11], 25 µM. The MBC in data set [2] amounted to 25 µM; in [3], 12.5 µM; in [4] it was 6.2 µM; in data set [5], 3.1 µM; in [6] it was 50 µM; in data set [7] it was 6.2 µM. Also, the MBC in data set [8] amounted to 6.2 µM; in data set [9] it was 1.6 µM; in [10], 6.2 µM; in data set [11], 50 µM.
